Measurements taken from PubChem BioAssay (NCI).
Several values for one entry are separate records, joined by “and”; a condition that tells them apart may be missing. Equal values may be shown once.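 Five compound concentrations were applied to cells in 96-well plates for 48 hours; endpoints were derived by simple linear interpolation of the resulting dose-response curve. Here, GI50 denotes the concentration required for 50% inhibition of growth. Definition used: TGI = concentration required for complete inhibition of growth.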

What was measured:
Assay in all cases: NCI tumour cell line growth inhibition, 48 h
TK-10 renal = tested on: TK-10 renal
T-47D breast = tested on: T-47D breast
ACHN renal = tested on: ACHN renal
UACC-257 melanoma = tested on: UACC-257 melanoma
NCI/ADR-RES ovarian = tested on: NCI/ADR-RES ovarian
HCC-2998 colon = tested on: HCC-2998 colon
RPMI-8226 leukemia = tested on: RPMI-8226 leukemia
HCT-15 colon = tested on: HCT-15 colon
SK-MEL-28 melanoma = tested on: SK-MEL-28 melanoma
SF-539 CNS = tested on: SF-539 CNS
SW-620 colon = tested on: SW-620 colon
HS 578T breast = tested on: HS 578T breast
HOP-92 NSCLC = tested on: HOP-92 NSCLC

| Structure (SMILES) | TGI (TK-10 renal) | TGI (T-47D breast) | TGI (ACHN renal) | TGI (UACC-257 melanoma) | TGI (NCI/ADR-RES ovarian) | TGI (HCC-2998 colon) | TGI (RPMI-8226 leukemia) | TGI (HCT-15 colon) | TGI (SK-MEL-28 melanoma) | TGI (SF-539 CNS) | TGI (SW-620 colon) | TGI (HS 578T breast) | TGI (HOP-92 NSCLC) | GI50 (NCI/ADR-RES ovarian) | GI50 (HCT-15 colon) | GI50 (HS 578T breast) |
| --- | --- | --- | --- | --- | --- | --- | --- | --- | --- | --- | --- | --- | --- | --- | --- | --- |
| CC(C)C[C@H](NC(=O)CCc1cccc2ccccc12)B(O)O | 12.4 µM | 4.23 µM | > 100 µM | 3.91 µM | 11.7 µM | 2.62 µM | 3.95 µM | 9.01 µM | 4.05 µM | 1.21 µM | 3.26 µM | 7.4 µM | 7.37 µM | – | – | – |
| O=C(N[C@@H](Cc1ccccc1)B(O)O)[C@H](Cc1cccc2ccccc12)NC(=O)N1CCOCC1 | 0.154 µM and 0.413 µM | 0.00368 µM | 24.6 µM | 0.0065 µM and 0.0397 µM | > 100 µM | 0.00339 µM | 0.00414 µM | 0.61 µM and 0.405 µM | 0.00367 µM | 0.000769 µM | 0.0125 µM and 0.0101 µM | 0.213 µM | 0.00744 µM | 7.31 µM | – | – |
| C[C@]12CC/C(=N\O)C=C1CC[C@@H]1[C@@H]2CC[C@]2(C)C(=N/O)/C(=C/c3ccncc3)C[C@@H]12 | > 100 µM | 88.5 µM | > 100 µM | 80.2 µM | > 100 µM | 59.7 µM | 42.7 µM | > 100 µM | > 100 µM | > 100 µM | > 100 µM | > 100 µM | > 100 µM | – | – | – |
| C[C@H](CO)C1=CC(C#C[Si](C)(C)C)N(C(=O)Oc2ccccc2)c2ccccc21 (stereo not given in full) | 31.4 µM | 38.1 µM | 26.8 µM | 28.3 µM | 12.6 µM | 30.6 µM | > 100 µM | 9.71 µM | 37.5 µM | 33.9 µM | > 100 µM | 26.4 µM | 28.7 µM | – | – | – |
| COC1C(OC(C)=O)CC(=O)OC(C)C/C=C/C=C\C(O)C(C)CC(CC=O)C1OC1OC(C)C(OC2CC(C)(O)C(OC(=O)CC(C)C)C(C)O2)C(N(C)C)C1O (stereo not given) | > 100 µM | > 100 µM | > 100 µM | > 100 µM | > 100 µM | > 100 µM | > 100 µM | > 100 µM | > 100 µM | > 100 µM | > 100 µM | > 100 µM | > 100 µM | – | 36.4 µM and > 100 µM | > 100 µM and 42 µM |
| O=C(Nc1nccs1)NS(=O)(=O)n1cnc2ccccc21 | > 100 µM | > 100 µM | > 100 µM | > 100 µM | > 100 µM | > 100 µM | > 100 µM | > 100 µM | > 100 µM | > 100 µM | > 100 µM | > 100 µM | > 100 µM | – | – | – |
| Cc1cc(=O)n2nc(CSc3n[nH]c(=S)s3)sc2n1 | > 100 µM | > 100 µM | > 100 µM | > 100 µM | > 100 µM | > 100 µM | > 100 µM | > 100 µM | > 100 µM | > 100 µM | > 100 µM | > 100 µM | > 100 µM | – | – | – |
| NS(=O)(=O)c1ccc(N2C(=O)C(=O)N(c3ccccc3)C2=S)cc1 | > 100 µM | > 100 µM | > 100 µM | > 100 µM | > 100 µM | > 100 µM | > 100 µM | > 100 µM | > 100 µM | > 100 µM | > 100 µM | > 100 µM | 95.9 µM | – | – | – |
| COc1ccc(C(=O)N(Cc2cccnc2)C(=S)N(Cc2cccnc2)C(=O)c2ccc(OC)cc2)cc1 | > 100 µM | > 100 µM | > 100 µM | > 100 µM | > 100 µM | > 100 µM | > 100 µM | > 100 µM | > 100 µM | > 100 µM | > 100 µM | > 100 µM | > 100 µM | – | – | – |
